Test results reported in patent US5770380A (priority 1996, dated 1998).

Biological target: melittin (Apis mellifera, UniProt P01501)
Test: biochemical
Type: binding, bee

melittin, sequence (P01501 44-69 limits assumed): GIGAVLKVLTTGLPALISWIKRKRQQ

## CCCCOc1c2cc(C(=O)Nc3cc4cc(c3)C(=O)NCC(=O)N[C@@H](CC(=O)O)C(=O)NCC(=O)N[C@@H](CC(=O)O)C(=O)NC4)cc1Cc1cc(C(=O)Nc3cc4cc(c3)C(=O)NCC(=O)N[C@@H](CC(=O)O)C(=O)NCC(=O)N[C@@H](CC(=O)O)C(=O)NC4)cc(c1OCCCC)Cc1cc(C(=O)Nc3cc4cc(c3)C(=O)NCC(=O)N[C@@H](CC(=O)O)C(=O)NCC(=O)N[C@@H](CC(=O)O)C(=O)NC4)cc(c1OCCCC)Cc1cc(C(=O)Nc3cc4cc(c3)C(=O)NCC(=O)N[C@@H](CC(=O)O)C(=O)NCC(=O)N[C@@H](CC(=O)O)C(=O)NC4)cc(c1OCCCC)C2 [compound 1, Calix[4]arenetetracyclicpeptide1]
  Kd: 1000 nM
